# Measured values: article PMC12016531 (Applied and Environmental Microbiology, 2025)
# Key:
# [1] = tested on: L. monocytogenes ATCC19111; test: Intracellular accumulation of UDP-MurNAc-pentapeptide; format: cell-based, Listeria monocytogenes; conditions: mycoidesin 1× and 2× MIC, vancomycin 10× MIC; 60 min; chloramphenicol 130 µg/mL pre-incubation 15 min; HPLC, MS
# Procedure: (§1) Bacillus cereus CMCC63301 and L. monocytogenes ATCC19111 were grown to an OD600 of 0.3 and incubated with chloramphenicol (130 µg/mL) for 15 min. Mycoidesin (1× and 2× MIC) and vancomycin (10× MIC; positive control) were added and incubated for 60 min. The cells were collected, added to boiling water, treated for 15 min, centrifuged, and the supernatant was lyophilized. The intracellular accumulation of the peptidoglycan precursor UDP-MurNAc-pentapeptide was analyzed using HPLC (Hypersil ODS column) and identified via mass spectrometry ([27]).
# [2] = tested on: Bacillus cereus CMCC63301; test: as above; format: cell-based; conditions: mycoidesin 1× and 2× MIC, vancomycin 10× MIC; 60 min; chloramphenicol 130 µg/mL pre-incubation 15 min; HPLC, MS
# Procedure: as §1
compound,measurement,setting,value
"CN[C@H](CC(C)C)C(=O)N[C@H]1C(=O)N[C@@H](CC(N)=O)C(=O)N[C@H]2C(=O)N[C@H]3C(=O)N[C@H](C(=O)N[C@H](C(=O)O)c4cc(O)cc(O)c4-c4cc3ccc4O)[C@H](O)c3ccc(c(Cl)c3)Oc3cc2cc(c3O[C@@H]2O[C@H](CO)[C@@H](O)[C@H](O)[C@H]2O[C@H]2C[C@](C)(N)[C@H](O)[C@H](C)O2)Oc2ccc(cc2Cl)[C@H]1O [vancomycin, reference compound]",Intracellular accumulation of UDP-MurNAc-pentapeptide,[1],observed
same,Intracellular accumulation of UDP-MurNAc-pentapeptide,[2],observed
